Measured values from publication PMC3770947, “A cyclic GMP-dependent signalling pathway regulates bacterial phytopathogenesis” (The EMBO Journal, 2013).

How the values were obtained:
[1] = target: T1, CYC domain of XC_0250 (CYCHis6) (Xanthomonas campestris, UniProt Q8PDU5); assay: guanylyl cyclase assay, reverse-phase HPLC and mass spectrometry; assay type: biochemical; conditions: 0.5 mM GTP, 10 mM MnCl2, pH 8.0, 25°C
T1 construct: gene XCC0240; single band of 21 kDa

full-length XC_0249 = target: T2, full-length XC_0249 (Xanthomonas campestris, UniProt Q8PDU6); assay: diguanylate cyclase assay, HPLC and mass spectrometry; assay type: biochemical; conditions: 150 μM GTP, 10 mM MgCl2, pH 7.6, 60 min
T2 construct: gene XCC0239; full-length purified protein; cNMP domain plus GGDEF domain
T2 sequence (Q8PDU6 entry or part of it): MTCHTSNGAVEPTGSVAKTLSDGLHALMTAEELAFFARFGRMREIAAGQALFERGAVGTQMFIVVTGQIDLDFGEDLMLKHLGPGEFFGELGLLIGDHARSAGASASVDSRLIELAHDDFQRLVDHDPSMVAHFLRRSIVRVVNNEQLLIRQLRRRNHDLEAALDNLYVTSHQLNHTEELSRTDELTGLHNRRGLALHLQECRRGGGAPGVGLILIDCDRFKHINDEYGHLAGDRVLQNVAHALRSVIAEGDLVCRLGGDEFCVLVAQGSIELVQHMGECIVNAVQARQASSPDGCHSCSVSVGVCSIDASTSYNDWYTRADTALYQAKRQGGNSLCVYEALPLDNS

[2] = target: cNMP domain of XC_0249 (Xanthomonas campestris pv. campestris (Xcc) strain 8004); assay: crystal structure; XC_0249 cNMP domain with cyclic GMP bound, resolution 2.2 Å

T1 sequence (Q8PDU5 entry or part of it): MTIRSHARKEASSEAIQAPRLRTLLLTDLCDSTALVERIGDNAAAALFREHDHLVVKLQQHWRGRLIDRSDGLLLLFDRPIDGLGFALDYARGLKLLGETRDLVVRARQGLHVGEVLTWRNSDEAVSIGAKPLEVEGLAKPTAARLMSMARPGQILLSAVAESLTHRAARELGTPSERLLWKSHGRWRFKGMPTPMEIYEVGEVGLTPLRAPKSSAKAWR

Compound | guanylyl cyclase assay, reverse-phase HPLC and mass spectrometry [1] | further results
Nc1nc2c(ncn2[C@@H]2O[C@H](COP(=O)(O)OP(=O)(O)OP(=O)(O)O)[C@@H](O)[C@H]2O)c(=O)[nH]1 [GTP] | This protein had guanylate cyclase activity, converting GTP to cyclic GMP | 
Nc1nc2c(ncn2[C@@H]2O[C@@H]3COP(=O)(O)O[C@H]3[C@H]2O)c(=O)[nH]1 [cyclic GMP] | This protein had guanylate cyclase activity, converting GTP to cyclic GMP | 
Nc1nc2c(ncn2[C@@H]2O[C@@H]3COP(=O)(O)O[C@H]4[C@@H](O)[C@H](n5cnc6c(=O)[nH]c(N)nc65)O[C@@H]4COP(=O)(O)O[C@H]3[C@H]2O)c(=O)[nH]1 [cyclic di-GMP] |  | diguanylate cyclase assay, HPLC and mass spectrometry (full-length XC_0249): The identity of cyclic di-GMP as a product was confirmed by mass spectrometry
cNMP domain of XC_0249 (domain or fragment) |  | stoichiometry N [2]: 2
